Data from patent US5665736A, “N-benzoylmethyl-piperidines” (priority 1995, dated 1997).
Where a name gives a salt, the structure may show the parent alone.

Tested on: mice
Assay: Irwin test in mice, oral administration
Format: in vivo
From the text: These findings are most important, since the safety range of the compounds of this invention makes them be highly useful for their clinical application.

## O=C(CN1CC[C@@H](c2ccc(F)cc2)[C@H](COc2ccc3c(c2)OCO3)C1)c1ccc(Cl)cc1 [Example 2, (-)-Trans-N-p-chlorobenzoylmethyl-4-(p-fluorophenyl)-3-[[3,4-(methylenedioxy)phenoxy]methyl]-piperidine hydrochloride]
800 mg/kg
  signs of toxicity, Irwin test: merely the onset of manifestations of hyperactivity was observed

## Fc1ccc([C@@H]2CCNC[C@H]2COc2ccc3c(c2)OCO3)cc1 [Paroxetine, (-)-trans-4-(p-fluorophenyl)-3-[[3,4-(methylenedioxy)phenoxy]methyl]-piperidine, reference compound]
400 mg/kg
  signs of toxicity, Irwin test: convulsions, mydriasis and Straub tail

## O=C(CN1CC[C@@H](c2ccc(F)cc2)[C@H](COc2ccc3c(c2)OCO3)C1)c1ccc(F)cc1 [Example 1, (-)-Trans-N-p-fluorobenzoylmethyl-4-(p-fluorophenyl)-3-[[3,4-(methylenedioxy)phenoxy]methyl]-piperidine hydrochloride]
600 mg/kg
  signs of toxicity, Irwin test: did not show any sign of toxicity
